#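 Exposure lasted 48 hours, with cells grown in 96-well plates and compounds tested at five concentrations. At the TGI there is no net growth.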
# Assays:
# Experiment in all cases: inhibition of tumour cell growth, NCI panel, 48 h
# [1] = system: 786-0 renal
# [2] = system: A498 renal
# [3] = system: A549 NSCLC
# [4] = system: ACHN renal
# [5] = system: BT-549 breast
# [6] = system: CAKI-1 renal
# [7] = system: CCRF-CEM leukemia
# [8] = system: COLO 205 colon
# [9] = system: DU-145 prostate
# [10] = system: EKVX NSCLC
# [11] = system: HCC-2998 colon
# [12] = system: HCT-116 colon
# [13] = system: HCT-15 colon
# [14] = system: HL-60(TB) leukemia
# [15] = system: HOP-62 NSCLC
# [16] = system: HOP-92 NSCLC
# [17] = system: HS 578T breast
# [18] = system: HT29 colon
# [19] = system: IGROV1 ovarian
# [20] = system: K-562 leukemia
# [21] = system: KM12 colon
# [22] = system: LOX IMVI melanoma
# [23] = system: M14 melanoma
# [24] = system: MALME-3M melanoma
# [25] = system: MCF7 breast
# [26] = system: MDA-MB-231 breast
# [27] = system: MDA-MB-435
# [28] = system: MDA-N
# [29] = system: MOLT-4 leukemia
# [30] = system: NCI-H226 lung
# [31] = system: NCI-H23 lung
# [32] = system: NCI-H460 lung
# [33] = system: NCI-H522 lung
# [34] = system: NCI/ADR-RES ovarian
# [35] = system: OVCAR-3 ovarian
# [36] = system: OVCAR-4 ovarian
# [37] = system: OVCAR-5 ovarian
# [38] = system: OVCAR-8 ovarian
# [39] = system: PC-3 prostate
# [40] = system: RPMI-8226 leukemia
# [41] = system: RXF 393 renal
# [42] = system: SF-268 CNS
# [43] = system: SF-295 CNS
# [44] = system: SF-539 CNS
# [45] = system: SK-MEL-2 melanoma
# [46] = system: SK-MEL-28 melanoma
# [47] = system: SK-MEL-5 melanoma
# [48] = system: SK-OV-3 ovarian
# [49] = system: SN12C renal
# [50] = system: SNB-19 CNS
# [51] = system: SNB-75 CNS
# [52] = system: SR leukemia
# [53] = system: SW-620 colon
# [54] = system: T-47D breast
# [55] = system: TK-10 renal
# [56] = system: U251 CNS
# [57] = system: UACC-257 melanoma
# [58] = system: UACC-62 melanoma
# [59] = system: UO-31 renal
structure (smiles),measurement,setting,value
O=c1c2nc(-c3ccccc3)oc2n(-c2ccccc2)c(=O)n1-c1ccccc1,TGI,[1],31.7 µM
same,TGI,[2],> 31.6 µM
same,TGI,[3],> 46.4 µM
same,TGI,[4],> 46.4 µM
same,TGI,[5],> 46.4 µM
same,TGI,[6],18.2 µM
same,TGI,[7],> 46.4 µM
same,TGI,[8],> 46.4 µM
same,TGI,[9],> 100 µM
same,TGI,[10],> 46.4 µM
same,TGI,[11],> 46.4 µM
same,TGI,[12],> 46.4 µM
same,TGI,[13],> 46.4 µM
same,TGI,[14],> 100 µM
same,TGI,[15],29.7 µM
same,TGI,[16],24.4 µM
same,TGI,[17],39.5 µM
same,TGI,[18],> 46.4 µM
same,TGI,[19],41 µM
same,TGI,[20],> 46.4 µM
same,TGI,[21],> 46.4 µM
same,TGI,[22],> 46.4 µM
same,TGI,[23],> 46.4 µM
same,TGI,[24],> 31.6 µM
same,TGI,[25],> 46.4 µM
same,TGI,[26],> 46.4 µM
same,TGI,[27],> 46.4 µM
same,TGI,[28],> 46.4 µM
same,TGI,[29],> 46.4 µM
same,TGI,[30],44.1 µM
same,TGI,[31],> 46.4 µM
same,TGI,[32],> 46.4 µM
same,TGI,[33],39.1 µM
same,TGI,[34],> 31.6 µM
same,TGI,[35],> 46.4 µM
same,TGI,[36],36.6 µM
same,TGI,[37],> 46.4 µM
same,TGI,[38],44.6 µM
same,TGI,[39],> 46.4 µM
same,TGI,[40],> 46.4 µM
same,TGI,[41],34.8 µM
same,TGI,[42],39.3 µM
same,TGI,[43],42.4 µM
same,TGI,[44],35.8 µM
same,TGI,[45],> 46.4 µM
same,TGI,[46],> 100 µM
same,TGI,[47],> 31.6 µM
same,TGI,[48],40.1 µM
same,TGI,[49],> 46.4 µM
same,TGI,[50],36 µM
same,TGI,[51],31.2 µM
same,TGI,[52],> 31.6 µM
same,TGI,[53],> 46.4 µM
same,TGI,[54],> 46.4 µM
same,TGI,[55],21.5 µM
same,TGI,[56],33.1 µM
same,TGI,[57],> 46.4 µM
same,TGI,[58],> 46.4 µM
same,TGI,[59],> 31.6 µM
OC(NN=C1CCCC1)(C(F)(F)Cl)C(F)(F)Cl,TGI,[1],> 10 µM
same,TGI,[2],> 10 µM
same,TGI,[3],> 10 µM
same,TGI,[4],> 10 µM
same,TGI,[5],> 10 µM
same,TGI,[6],> 10 µM
same,TGI,[7],> 10 µM
same,TGI,[8],> 10 µM
same,TGI,[9],> 10 µM
same,TGI,[10],> 10 µM
same,TGI,[11],> 10 µM
same,TGI,[12],> 10 µM
same,TGI,[13],> 10 µM
same,TGI,[14],> 10 µM
same,TGI,[15],> 10 µM
same,TGI,[16],> 10 µM
same,TGI,[17],> 10 µM
same,TGI,[18],> 10 µM
same,TGI,[19],> 10 µM
same,TGI,[20],> 10 µM
same,TGI,[21],> 10 µM
same,TGI,[22],> 10 µM
same,TGI,[23],> 10 µM
same,TGI,[24],> 10 µM
same,TGI,[25],> 10 µM
same,TGI,[26],> 10 µM
same,TGI,[27],> 10 µM
same,TGI,[28],> 10 µM
same,TGI,[29],> 10 µM
same,TGI,[30],> 10 µM
same,TGI,[31],> 10 µM
same,TGI,[32],> 10 µM
same,TGI,[33],> 10 µM
same,TGI,[34],> 10 µM
same,TGI,[35],> 10 µM
same,TGI,[36],> 10 µM
same,TGI,[37],> 10 µM
same,TGI,[38],> 10 µM
same,TGI,[39],> 10 µM
same,TGI,[40],> 10 µM
same,TGI,[41],> 10 µM
same,TGI,[42],> 10 µM
same,TGI,[43],> 10 µM
same,TGI,[44],> 10 µM
same,TGI,[45],> 10 µM
same,TGI,[46],> 10 µM
same,TGI,[47],> 10 µM
same,TGI,[48],> 10 µM
same,TGI,[49],> 10 µM
same,TGI,[50],> 10 µM
same,TGI,[51],> 10 µM
same,TGI,[52],> 10 µM
same,TGI,[53],> 10 µM
same,TGI,[54],> 10 µM
same,TGI,[55],> 10 µM
same,TGI,[56],> 10 µM
same,TGI,[57],> 10 µM
same,TGI,[58],> 10 µM

# From PubChem BioAssay (NCI)
